What was measured:
MonoMac-6 (MM6) cells = assay: MonoMac-6 macrophage proliferation assay (WST-1 reagent); assay type: cell-based, human; settings: single drug, 48 hours; for inhibition at 10 µM / inhibition at 30 µM / inhibition at 100 µM: Homo sapiens, MONO-MAC-6, WST-1, mean n=4; for inhibition at 10 µM: final concentration 10 μM; for inhibition at 30 µM: final concentration 30 μM; for inhibition at 100 µM: final concentration 100 μM
Procedure: Cells from the human macrophage cell-line MonoMac-6 (MM6) (Ziegler-Heitbrock et al, Int. J. Cancer, 41, 456 (1988)) were cultured (37° C./5% CO2) in RPMI-1640 medium supplemented with 1 mM sodium pyruvate, 1× nonessential amino acids, 1-100 μg/mL insulin, 1 mM oxalacetic acid, 100 units/mL penicillin, 100 μg/mL streptomycin and 10% (v/v) fetal bovine serum. At the start of the experiment, MM6 cells were seeded in 96-well plates at a density of 1×10^5 cells/mL (100 μl per well). Proliferation of the MM6 cells was measured using the Cell Proliferation Reagent WST-1 (Roche Diagnostics Scandinavia AB, Bromma, Sweden) or by cell counting using a microscope. The WST-1 reagent is designed to be used for spectrophotometric quantification of e.g. cell growth in proliferation assays and was used according to the manufacturers' instructions. The wavelength for measuring absorbance was 450 nm and the absorbance of all untreated control cells exposed to the WST-1 reagent was between 1.0 and 2.5. Stock solutions of ramatroban (sodium salt; ramatroban was purchased from Cayman Chemical, Ann Arbor, Mich., USA as free acid and converted to sodium salt by adding one equivalent of aqueous NaOH) and rosuvastatin (sodium salt; rosuvastatin was extracted and purified from commercially available Crestor® tablets and isolated as sodium salt as described in Bioorganic & Medicinal Chemistry, Vol. 5, No. 5, pp 437-444, 1997) were made in sterile saline.
The effects of ramatroban and/or rosuvastatin (added at the start of the experiments) on MM6 cell proliferation were studied 48 hours after start of the experiments using the WST-1 reagent described above.
The procedure described in Example 19 was repeated for atorvastatin (sodium salt; received as atorvastatin calcium as a gift from Biocon, Ltd., Bangalore, India and converted into sodium salt by firstly converting the calcium salt into the free acid by addition of aqueous hydrochloric acid and then, after isolation via extraction, adding one equivalent of aqueous NaOH).
The procedure described in Example 19 was repeated for simvastatin (sodium salt; simvastatin was received as the lactone as a gift from Biocon, Ltd., Bangalore, India and isolated as the sodium salt following lactone ring opening via hydrolysis using one equivalent of NaOH in water and ethanol at 60° C.).

[1] = test system: Rat aortic smooth muscle cells (RASMC); assay: Rat aortic smooth muscle cell proliferation assay (WST-1 reagent, 5% FBS stimulated); assay type: cell-based; settings: single drug, 48 hours, F-12/5% FBS; for inhibition at 0.1 µM: final concentration 0.1 μM; for inhibition at 0.1 µM / inhibition at 1 µM / inhibition at 10 µM: mean n=3; for inhibition at 1 µM: final concentration 1 μM; for inhibition at 10 µM: final concentration 10 μM
Procedure: Rat aortic smooth muscle cells (RASMC) were isolated as previously described (Hellin et al, Arterioscler. Thromb. Vasc. Biol., 17, 1977 (1997)). The cells were cultired (37° C./5% CO2) in Ham's medium F-12 supplemented with 10% fetal bovine serum (FBS), 50 μg/mL L-ascorbic acid, 50 μg/mL streptomycin and 50 IU/mL penicillin (F-12/10% FBS), grown to confluence, serially passaged by trypsinization, and used in experiments after 2-7 passages. The RASMC were seeded in 96-well plates at a density of approximately 5×10^3 cells per well in F-12/10% FBS (100 μl per well). After 72 hours, the cells were synchronized in G0/G1 phase by starvation in Ham's medium F-12 supplemented with 0.1% bovine serum albumin (BSA), 50 μg/mL L-ascorbic acid, 50 μg/mL streptomycin and 50 IU/mL penicillin (F-12/0.1% BSA) for 48 hours. After the starvation, the cells were 70-80% confluent. The experiment was then started by changing to F-12 medium containing 5% FBS, 50 μg/mL L-ascorbic acid, 50 μg/mL streptomycin and 50 IU/mL penicillin (F-12/5% FBS), without (positive control cells) or with the test drugs (drug treated cells) as described below. For comparison, some cells remained in F-12/0.1% BSA (negative control cells).
Proliferation of the RASMC cells was measured using the Cell Proliferation Reagent WST-1 (Roche Diagnostics Scandinavia AB, Bromma, Sweden). The WST-1 reagent is designed to be used for spectrophotometric quantification of e.g. cell growth in proliferation assays and was used according to the manufacturers' instructions. The wavelength for measuring absorbance was 450 nm and the absorbance of all untreated positive control cells exposed to the WST-1 reagent was between 1 and 2.7.
Stock solutions of ramatroban (sodium salt; see Example 19 above) and rosuvastatin (sodium salt; see Example 19 above) were made in sterile saline.
48 hours after start of the experiment as described above, the mean positive control RASMC proliferation (measured using the WST-1 reagent) was 225% of that of the negative control RASMC (n=12 in both groups). The effects of ramatroban and/or rosuvastatin (added to cells in F-12/5% FBS at the start of the experiment) on RASMC proliferation were studied 48 hours after start of the experiment.
The procedure described in Example 22 was repeated for atorvastatin (sodium salt; see Example 20 above).
The procedure described in Example 22 was repeated for simvastatin (sodium salt; see Example 21 above).

Row | Structure (SMILES) | inhibition at 10 µM (MonoMac-6 (MM6) cells) [%] | inhibition at 30 µM (MonoMac-6 (MM6) cells) [%] | inhibition at 100 µM (MonoMac-6 (MM6) cells) [%] | inhibition at 0.1 µM [1] [%] | inhibition at 1 µM [1] [%] | inhibition at 10 µM [1] [%] | effect on MM6 proliferation (in words) (MonoMac-6 (MM6) cells; 10 μM, data not shown) | inhibition at 100 µM ([1]; final concentration 100 μM, mean n=6) [%]
1 | CC(C)c1c(C(=O)Nc2ccccc2)c(-c2ccccc2)c(-c2ccc(F)cc2)n1CC[C@@H](O)C[C@@H](O)CC(=O)O [atorvastatin] | 16.8 | 27.8 | 71.7 | 27.4 | 0 | 18.9 |  | 
2 | O=C(O)CCn1c2c(c3ccccc31)C[C@H](NS(=O)(=O)c1ccc(F)cc1)CC2 [ramatroban] |  |  | 15.2 |  |  |  | effect similar to that of 100 μM of ramatroban | 11.9
3 | CC(C)c1nc(N(C)S(C)(=O)=O)nc(-c2ccc(F)cc2)c1/C=C/[C@@H](O)C[C@@H](O)CC(=O)O [rosuvastatin] | 11.5 | 31.2 | 70.1 | 5.3 | 0 | 21.7 |  | 
4 | CCC(C)(C)C(=O)O[C@H]1C[C@@H](C)C=C2C=C[C@H](C)[C@H](CC[C@@H]3C[C@@H](O)CC(=O)O3)[C@H]21 [simvastatin] | 21.3 | 68.1 | 85 | 23.8 | 0 | 74.3 |  | 
